Test results taken from ChEMBL document CHEMBL4342465, “Lead Optimization and Avoidance of Reactive Metabolite Leading to PCO371, a Potent, Selective, and Orally Available Human Parathyroid Hormone Receptor 1 (hPTHR1) Agonist” (J Med Chem, 2020).
Calls of active or inactive are those of the source. No cut-off for these calls is given here.

What was measured:
[1] = Clearance in human liver microsomes at 1 uM measured after 30 mins in presence of NADPH by LC-MS/MS analysis; type: ADME, Microsome; conditions: read-out: CLH
[2] = target: T1, Parathyroid hormone/parathyroid hormone-related peptide receptor (Homo sapiens, UniProt Q03431); assay: Agonist activity at recombinant human PTHR1 expressed in pig LLC-PK1 cells assessed as increase in cAMP production measured after 20 mins by EIA; type: functional, cell-based
T1 sequence (Q03431 whole entry): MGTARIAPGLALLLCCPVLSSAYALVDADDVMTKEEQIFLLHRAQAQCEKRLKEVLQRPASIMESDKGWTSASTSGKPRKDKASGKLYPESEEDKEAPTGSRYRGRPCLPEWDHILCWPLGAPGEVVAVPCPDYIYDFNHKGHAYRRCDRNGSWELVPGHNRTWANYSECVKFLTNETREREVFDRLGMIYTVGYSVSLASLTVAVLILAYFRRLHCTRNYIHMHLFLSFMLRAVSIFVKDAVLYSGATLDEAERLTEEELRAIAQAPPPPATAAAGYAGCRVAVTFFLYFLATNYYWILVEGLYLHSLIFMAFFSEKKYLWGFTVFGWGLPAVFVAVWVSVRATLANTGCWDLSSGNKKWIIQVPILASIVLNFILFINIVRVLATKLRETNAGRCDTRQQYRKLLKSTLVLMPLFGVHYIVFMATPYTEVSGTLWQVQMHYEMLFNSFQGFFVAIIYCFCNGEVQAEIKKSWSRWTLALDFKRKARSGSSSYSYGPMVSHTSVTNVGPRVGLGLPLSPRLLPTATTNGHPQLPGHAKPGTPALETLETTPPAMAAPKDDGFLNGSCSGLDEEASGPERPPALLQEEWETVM

[3] = target: T2, Parathyroid hormone/parathyroid hormone-related peptide receptor (Homo sapiens) (UniProt Q03431); conditions: LLC-PK1
T2 sequence (whole entry): T1 sequence (Q03431 whole entry)

[4] = Drug metabolism in human liver microsomes assessed as oxidation by measuring compound 18 formation at 1 uM measured after 30 mins in presence of NADPH by LC-MS/MS analysis; type: ADME, Microsome; conditions: 0.5 h
[5] = AUC (infinity) in rat at 2 mg/kg, iv by LC-MS/MS analysis; type: ADME, organism-based; set-up: dose 2 mg/kg, route intravenous, time infinity; conditions: in vivo
[6] = Clearance in rat at 2 mg/kg, iv by LC-MS/MS analysis; type: ADME, organism-based; conditions: in vivo
[7] = Volume of distribution at steady state in rat at 2 mg/kg, iv by LC-MS/MS analysis; type: ADME, organism-based; conditions: in vivo, read-out: Vdss
[8] = Half life in rat at 2 mg/kg, iv by LC-MS/MS analysis; type: ADME, organism-based; conditions: in vivo
[9] = tested on: Rattus norvegicus; assay: Anti-hypoparathyroidism activity in po dosed TPTX Crl:CD(SD) rat assessed as increase in serum calcium level measured up to 24 hrs by o-CPC method; type: functional, organism-based
[10] = tested on: Rattus norvegicus; assay: Anti-hypoparathyroidism activity in po dosed TPTX Crl:CD(SD) rat assessed as decrease in serum phosphate level measured up to 24 hrs by xanthine oxidase based method; type: functional, organism-based
[11] = tested on: Rattus norvegicus; assay: Anti-hypoparathyroidism activity in po dosed TPTX Crl:CD(SD) rat assessed as increase in serum calcium level by measuring serum calcium level at 30 mg/kg, po administered as single dose measured after 24 hrs by o-CPC method; type: functional
[12] = tested on: Rattus norvegicus; assay: Anti-hypoparathyroidism activity in po dosed TPTX Crl:CD(SD) rat assessed as time required to show maximum increase in serum calcium level by o-CPC method; type: functional
[13] = tested on: Rattus norvegicus; assay: Anti-hypoparathyroidism activity in po dosed TPTX Crl:CD(SD) rat assessed as time required to show minimum decrease in serum phosphate level by xanthine oxidase based method; type: functional
[14] = tested on: Rattus norvegicus; assay: Anti-hypoparathyroidism activity in sc dosed TPTX Crl:CD(SD) rat assessed as increase in serum calcium level measured up to 24 hrs by o-CPC method; type: functional, organism-based
[15] = Drug metabolism in human liver microsomes assessed as hydrolysis by measuring compound 19 formation at 1 uM measured after 30 mins in presence of NADPH by LC-MS/MS analysis; type: ADME, Microsome; conditions: 0.5 h
[16] = Drug metabolism in human liver microsomes assessed as compound 17 formation at 1 uM measured after 30 mins in presence of NADPH by LC-MS/MS analysis; type: ADME, Microsome; conditions: 0.5 h

Cc1cc(N2C(=O)NC(=O)C2C)cc(C)c1CCS(=O)(=O)N1CCC2(CC1)N=C(c1ccc(OC(F)(F)F)cc1)NC2=O (centres undefined)
microsomal CLint at 1 µM [1]: 71 µL/min/mg

Cc1cc(N2CC(=O)NC2=O)cc(C)c1CCS(=O)(=O)N1CCC2(CC1)N=C(c1ccc(OC(F)(F)F)cc1)NC2=O
EC50 [2]: > 100 µM
EC20 [3]: > 100 µM

Cc1cc(N)cc(C)c1CCS(=O)(=O)N1CCC2(CC1)N=C([C@H]1CC[C@H](C)CC1)NC2=O
Drug metabolism [4]: Metabolite_Detected

Cc1cc(N2C(=O)NC(=O)C23CCCC3)cc(C)c1CCS(=O)(=O)N1CCC2(CC1)N=C(c1ccc(OC(F)(F)F)cc1)NC2=O
microsomal CLint at 1 µM [1]: 35 µL/min/mg

Cc1cc(N2C(=O)CNC2=O)cc(C)c1CCS(=O)(=O)N1CCC2(CC1)N=C([C@H]1CC[C@H](C)CC1)NC2=O
EC50 [2]: 32 µM
microsomal CLint at 1 µM [1]: 53 µL/min/mg
EC20 [3]: 6 µM

Cc1cc(N2C(=O)CNC2=O)cc(C)c1CCS(=O)(=O)N1CCC2(CC1)N=C(c1ccc(OC(F)(F)F)cc1)NC2=O
microsomal CLint at 1 µM [1]: 110 µL/min/mg

Cc1cc(N2C(=O)NC(=O)C2(C)C)cc(C)c1CCS(=O)(=O)N1CCC2(CC1)N=C(c1ccc(OC(F)(F)F)cc1)NC2=O [PCO-371]
microsomal CLint at 1 µM [1]: 30 µL/min/mg
AUC(0-inf) [5]: 1100 ng·h/mL
clearance [6]: 30.5 mL/min/kg
Vd [7]: 3.04 L/kg
half-life [8]: 1.3 h
Activity [9]: Dose-dependent effect
Activity [10]: Dose-dependent effect
Activity [11]: 8.8 to 10.4 mg/dL
Time [12]: 10 h
Time [13]: 10 h
EC20 [3]: 1.1 µM

CC[C@H](C)[C@H](NC(=O)[C@H](CCC(=O)O)NC(=O)[C@H](CO)NC(=O)[C@@H](NC(=O)[C@@H](N)CO)C(C)C)C(=O)N[C@@H](CCC(N)=O)C(=O)N[C@@H](CC(C)C)C(=O)N[C@@H](CCSC)C(=O)NC(Cc1cnc[nH]1)C(=O)N[C@@H](CC(N)=O)C(=O)N[C@@H](CC(C)C)C(=O)NCC(=O)N[C@@H](CCCCN)C(=O)N[C@@H](Cc1cnc[nH]1)C(=O)N[C@@H](CC(C)C)C(=O)N[C@@H](CC(N)=O)C(=O)N[C@@H](CO)C(=O)NC(CCSC)C(=O)N[C@@H](CCC(=O)O)C(=O)N[C@@H](CCCNC(=N)N)C(=O)N[C@H](C(=O)N[C@@H](CCC(=O)O)C(=O)N[C@@H](Cc1c[nH]c2ccccc12)C(=O)N[C@@H](CC(C)C)C(=O)N[C@@H](CCCNC(=N)N)C(=O)N[C@@H](CCCCN)C(=O)N[C@@H](CCCCN)C(=O)N[C@@H](CC(C)C)C(=O)N[C@@H](CCC(N)=O)C(=O)N[C@@H](CC(=O)O)C(=O)N[C@H](C(=O)N[C@@H](Cc1cnc[nH]1)C(=O)N[C@@H](CC(N)=O)C(=O)N[C@@H](Cc1ccccc1)C(=O)O)C(C)C)C(C)C (some centres undefined)
Activity [14]: Active
EC20 [3]: 0.0006 µM

Cc1cc(N2C(=O)N(C)C(=O)C2(C)C)cc(C)c1CCS(=O)(=O)N1CCC2(CC1)N=C(c1ccc(OC(F)(F)F)cc1)NC2=O
microsomal CLint at 1 µM [1]: 330 µL/min/mg

Cc1cc(N)cc(CO)c1C(O)CS(=O)(=O)N1CCC2(CC1)N=C([C@H]1CC[C@H](C)CC1)NC2=O (some centres undefined)
Drug metabolism [15]: Metabolite_Detected

CCC1(CC)C(=O)NC(=O)N1c1cc(C)c(CCS(=O)(=O)N2CCC3(CC2)N=C(c2ccc(OC(F)(F)F)cc2)NC3=O)c(C)c1
EC50 [2]: > 100 µM
microsomal CLint at 1 µM [1]: 29 µL/min/mg
EC20 [3]: 7.4 µM

CC[C@H]1CC[C@H](C2=NC3(CCN(S(=O)(=O)CCc4c(C)cc(N(C)C(N)=O)cc4C)CC3)C(=O)N2)CC1
EC50 [2]: 33 µM
microsomal CLint at 1 µM [1]: 170 µL/min/mg
EC20 [3]: 2.2 µM

Cc1cc(N(C)C(N)=O)cc(C)c1CCS(=O)(=O)N1CCC2(CC1)N=C(c1ccc(OC(F)(F)F)cc1)NC2=O
microsomal CLint at 1 µM [1]: 48 µL/min/mg

Cc1cc(N(C)C(N)=O)cc(C)c1CCS(=O)(=O)N1CCC2(CC1)N=C([C@H]1CC[C@H](C)CC1)NC2=O
Drug metabolism [16]: Metabolite_Detected
Activity [9]: Dose-dependent effect
Activity [10]: Dose-dependent effect
